Earlier results, collected in patent US20250057829A1, “INHIBITORS OF TRPC6 FOR TREATING FOCAL SEGMENTAL GLOMERULOSCLEROSIS” (Boehringer Ingelheim International GmbH, priority 2023, published 2025).

Test system: adults and children with steroid resistant FSGS
Conditions: week 8, follow-up vs. baseline; cited from earlier work

Substance: mycophenolate mofetil/dexamethasone [MMF/DEX]
- reduction of UPCR: ~50%
